Measured values as given in US10172876B2, “Use of ginsenoside M1 for treating IgA nephropathy” (priority 2014, dated 2019).

What was measured:
Dendritic cells (DCs) = test: IgA-IC stimulated dendritic cell maturation by flow cytometry; format: cell-based, mouse; conditions: LCHK168 1, 2 μM, flow cytometry (FIG. 13)
Method: (§1) Dendritic cells (DCs) maturation was determined by the upregulation of costimulatory molecule expression. Cells were treated with IgA-IC, LCHK168 (1, 2 μM) and stained with mAbs specific for mouse CD40, CD80, and CD86 and then analyzed by flow cytometry.

NLRP3 = test: Western blot of NLRP3 in IgA-IC stimulated DCs; format: cell-based, mouse; conditions: β-actin loading control (FIG. 14)
Method: as §1
Each protein sample was run on a 8% SDS-PAGE gel and the proteins were electro blotted on to a polyvinylidene difluoride membrane, which was then incubated for 1 h at room temperature in blocking buffer (Tris-buffered saline containing 5% skim milk) and then overnight at 4° C. with rabbit antibodies against NLRP3 or β-actin. After being washed, the membrane was incubated for 1 h at room temperature with HRP-conjugated goat anti-rabbit IgG antibody in the same buffer; then bound antibody was detected using UVP Biospectrum.

[1] = test system: reactive oxygen species (ROS); test: Measurement of reactive oxygen species (ROS) in renal tissue of IgAN mice; format: in vivo; conditions: vs disease control (FIG. 10)
Method: (§2) B-cell-deficient mice were obtained from the Academia Sinica (Professor John T. Kung, Institute of Molecular Biology, Taipei, Taiwan) and maintained at the animal center of the National Defense Medical Center (Taipei, Taiwan). IgAN was induced by daily injection of purified IgA anti-phosphorylcholine antibodies and pneumococcal C-polysaccharide antigen (PnC). All animal experiments were performed with the approval of the Institutional Animal Care and Use Committee of the National Defense Medical Center and complied with the NIH Guide for the Care and Use of Laboratory Animals.
(§3) Ginsenoside M1, 20-O-β-D-glucopyranosyl-20(S)-protopariaxadiol (named LCHK168 below), was prepared by methods known in the art, such as those described in Taiwan Patent Application No. 094116005 (1280982) and U.S. Pat. No. 7,932,057. […]
To measure ROS levels in renal tissue, the samples were incubated at room temperature with Krebs-Hepes buffer containing 1.25 mM lucigenin (Sigma, St. Louis, Mo., USA) as substrate, and luminescence counts were measured in duplicate at 15-s intervals on a multilabel microplate reader (Hidex). ROS activity was expressed as relative luminescence units (RLU) per 15 minutes per milligram of organ dry weight (i.e., RLU/15 min/mg) or as RLU/15 min/ml.

[2] = test system: mice model of IgA nephropathy (IgAN); test: Renal histopathology (H&E) in IgAN mice; format: in vivo; conditions: day 28, 60 mg/kg daily oral gavage, vs disease control (FIG. 3)
Method: as §2
(§4) Ginsenoside M1, 20-O-β-D-glucopyranosyl-20(S)-protopariaxadiol (named LCHK168 below), was prepared by methods known in the art, such as those described in Taiwan Patent Application No. 094116005 (1280982) and U.S. Pat. No. 7,932,057. The mice were treated daily with 60 mg/kg LCHK168 or with the vehicle, by oral gavage throughout the experiment, the first dose being given 2 day before disease induction.
Body weight was measured weekly. Urine samples were collected in metabolic cages weekly and urine protein was determined. […] The percentage of glomeruli showing proliferation, neutrophil infiltration, sclerosis, or periglomerular inflammation was determined by counting 50 randomly sampled glomeruli by light microscopy at a magnification of 400×.

TLR2 = test: Real-time RT-PCR of renal TLR2 mRNA in IgAN mice; format: in vivo; conditions: 60 mg/kg daily oral gavage
Method: as §2, §4
Renal cortex RNA was extracted using TRIzol reagent according to the manufacturer's instructions, and RT-PCR was used to measure TLR2 gene expression. […] Real-time quantification was performed using a Applied Biosystems according to the manufacturer's instructions. […]

[3] = test system: mice model of IgA nephropathy (IgAN); test: Urine protein and renal function in IgAN mice; format: in vivo
Method: as §2, §4
Body weight was measured weekly. Urine samples were collected in metabolic cages weekly and urine protein was determined. Serum samples were collected on days 14 and 28 to measure serum levels of blood urea nitrogen (BUN) and creatinine (Cr). For renal histopathology, the tissues were fixed in 10% buffered formalin and embedded in paraffin, and then sections (3 μm) were prepared and stained with hematoxylin and eosin (H&E). The percentage of glomeruli showing proliferation, neutrophil infiltration, sclerosis, or periglomerular inflammation was determined by counting 50 randomly sampled glomeruli by light microscopy at a magnification of 400×.

memory CD4+ T cells = test: Flow cytometry of splenocytes for memory CD4+ T cells in IgAN mice; format: in vivo; conditions: 60 mg/kg daily oral gavage, vs disease control (FIG. 11)
Method: as §2, §3
Splenocytes from the mice were treated with Tris-buffered ammonium chloride to eliminate erythrocytes, washed and resuspended in RPMI1640 medium supplemented with 10% fetal calf serum, Hepes buffer, L-glutamine, and penicillin/streptomycin. The cells were triple-stained for activated T cell subtypes using FITC-conjugatedanti-mouse CD44, phycoerythrin-conjugated anti-mouse CD62 antibodies, and allophycocyanin-conjugated anti-mouse CD4 and analyzed using a FACSCalibur.

[4] = test system: mice model of IgA nephropathy (IgAN); test: IHC of renal tissue for infiltrating leukocytes and Collagen IV in IgAN mice; format: in vivo; conditions: day 28, 60 mg/kg daily oral gavage
Method: as §2, §4
For IHC, formalin-fixed and paraffin-embedded tissue sections or frozen sections were incubated overnight at 4. C with anti-bodies against CD3, F4/80, CD4, CD8, CD11c, Collagen IV, diluted in DAKO antibody dilution buffer (DAKO), and then for 1 h at room temperature with horseradish peroxidase (HRP)-conjugated second antibodies (DAKO) in the same buffer; in the case of the HRP-conjugated antibodies, DAB (DAKO) was also added. Hematoxylin was used to counterstain nuclei. Positive cells was counted at a magnification of 400× in 20 consecutive glomeruli or in 20 randomly selected fields of the tubule interstitial compartment in the cortical area by Pax-It quantitative image analysis software.

[5] = day 14, 60 mg/kg daily oral gavage, between disease control, IgAN+LCHK168 and normal control

`CC(C)=CCC[C@](C)(O[C@@H]1OC(CO)[C@@H](O)[C@@H](O)C1O)[C@H]1CC[C@]2(C)C1[C@H](O)CC1[C@@]3(C)CC[C@H](O)C(C)(C)C3CC[C@]12C` (stereo partly drawn) [LCHK168, 20-O-β-D-glucopyranosyl-20(S)-protopanaxadiol] was tested, and the “expression level of CD40 in DCs” value (Dendritic cells (DCs)) was “significantly lowered”, the “expression level of CD80 in DCs” value (Dendritic cells (DCs)) was “significantly lowered” and the “expression level of CD86 in DCs” value (Dendritic cells (DCs)) was “significantly lowered”. The “NLRP3 protein expression in DCs” value (NLRP3) was “significantly decreased”, the “increase in renal tissues ROS levels” value ([1]; day 14, 60 mg/kg daily oral gavage) was “greatly inhibited” and the “increase in ROS levels in renal tissues” value ([1]; day 28, 60 mg/kg daily oral gavage) was “substantially inhibited”. The “renal lesion (proliferation, crescents, sclerosis, neutrophil infiltration, periglomerular leukocyte infiltration, tubular atrophy)” value [2] was “significantly inhibited”, the “TLR2 mRNA levels in the kidney (relative to GAPDH)” value (TLR2; 14 days, difference vs IgAN control mice (FIG. 12)) was “not statistically significant” and the “TLR2 mRNA levels in the kidney (relative to GAPDH)” value (TLR2; 28 days, vs IgAN control mice (FIG. 12)) was “significantly lower”. The “urine protein levels (ratio of urine protein to creatinine)” value ([3]; IgAN mice, 60 mg/kg daily oral gavage, day 14 to day 28, vs vehicle-treated disease control (FIG. 1)) was “markedly inhibited”, the “proteinuria compared to normal untreated controls” value ([3]; IgAN mice, 60 mg/kg daily oral gavage, vs normal untreated controls (FIG. 1)) was “mild proteinuria” and the “serum levels of BUN” value [3, 5] was “no significant difference”. The “serum levels of Cr” value [3, 5] was “no significant difference”, the “serum levels of BUN” value ([3]; day 28, 60 mg/kg daily oral gavage, vs disease control (FIG. 2A)) was “much better renal function” and the “serum levels of Cr” value ([3]; day 28, 60 mg/kg daily oral gavage, vs disease control (FIG. 2B)) was “much better renal function”. The “memory CD4+ T cells in splenocytes” value (memory CD4+ T cells) was “significant reduction”, the “renal infiltration of CD3+ T cells” value ([4]; vs disease control (FIG. 4)) was “significantly decreased” and the “renal infiltration of F4/80+ monocytes/macrophages” value ([4]; vs disease control (FIG. 5)) was “significantly decreased”. The “renal infiltration of CD4+ T cells” value ([4]; vs disease control (FIG. 6)) was “significantly decreased”, the “renal infiltration of CD8+ T cells” value ([4]; vs disease control (FIG. 7)) was “significantly decreased” and the “renal infiltration of CD11c+ dendritic cells” value ([4]; vs disease control (FIG. 8)) was “significantly decreased”. For the same compound, the “renal fibrosis (Collagen IV staining)” value ([4]; vs disease control (FIG. 9)) was “significantly decreased”.
